Test results taken from PubChem BioAssay AID256 (DTP/NCI, 2004).
Where “and” joins values, the source holds several entries; their conditions need not be identical. Equal entries are not always repeated. Toxic doses and inconclusive results are not listed. Rule for the calls: active = survival T/C of 150% or more; inactive = T/C below 125% in these data.

System: CD2F1 mice, L1210 leukemia ip, survival T/C
Experiment: NCI In Vivo Anticancer Drug Screen. Data for tumor model L1210 Leukemia (intraperitoneal) in CD2F1 (CDF1) mice
Conditions: endpoint: mean survival time, higher = longer survival
Outline: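 Vehicle-treated tumor-bearing mice served as controls (C) for compound-treated mice (T). Reported figure is T divided by C.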

[1] = dose: 25.0 mg/kg/injection, schedule: Q01DX009 (ip), vehicle: saline
[2] = dose: 50.0 mg/kg/injection, schedule: Q01DX009 (ip), vehicle: saline
[3] = dose: 100.0 mg/kg/injection, schedule: Q04DX003 (ip), vehicle: saline with Tween-80
[4] = dose: 200.0 mg/kg/injection, schedule: Q04DX003 (ip), vehicle: saline with Tween-80
[5] = dose: 12.5 mg/kg/injection, schedule: Q01DX009 (ip), vehicle: saline with Tween-80
[6] = dose: 25.0 mg/kg/injection, schedule: Q01DX009 (ip), vehicle: saline with Tween-80
[7] = dose: 50.0 mg/kg/injection, schedule: Q01DX009 (ip), vehicle: saline with Tween-80
[8] = dose: 100.0 mg/kg/injection, schedule: Q01DX009 (ip), vehicle: saline with Tween-80
[9] = dose: 200.0 mg/kg/injection, schedule: Q01DX009 (ip), vehicle: saline with Tween-80
[10] = dose: 400.0 mg/kg/injection, schedule: Q01DX009 (ip), vehicle: saline with Tween-80
[11] = dose: 25.0 mg/kg/injection, schedule: Q01DX009 (ip), vehicle: water
[12] = dose: 100.0 mg/kg/injection, schedule: Q01DX009 (ip), vehicle: water
[13] = dose: 200.0 mg/kg/injection, schedule: Q01DX009 (ip), vehicle: water
[14] = dose: 100.0 mg/kg/injection, schedule: Q01DX001 (ip), vehicle: saline
[15] = dose: 200.0 mg/kg/injection, schedule: Q01DX001 (ip), vehicle: saline
[16] = dose: 100.0 mg/kg/injection, schedule: Q01DX009 (ip), vehicle: saline
[17] = dose: 400.0 mg/kg/injection, schedule: Q04DX003 (ip), vehicle: saline with Tween-80
[18] = dose: 75.0 mg/kg/injection, schedule: Q01DX001 (ip), vehicle: saline
[19] = dose: 150.0 mg/kg/injection, schedule: Q01DX001 (ip), vehicle: saline

Measured: T/C

NC(=O)C(N)CCO (stereo unspecified)
inactive: dose: 75.0 mg/kg/injection, schedule: Q01DX009 (ip), vehicle: saline 92 % of control | dose: 75.0 mg/kg/injection, schedule: Q04DX003 (ip), vehicle: saline 97 % of control | dose: 150.0 mg/kg/injection, schedule: Q01DX009 (ip), vehicle: saline 102 % of control | dose: 150.0 mg/kg/injection, schedule: Q04DX003 (ip), vehicle: saline 95 % of control | dose: 300.0 mg/kg/injection, schedule: Q01DX009 (ip), vehicle: saline 97 % of control | dose: 300.0 mg/kg/injection, schedule: Q04DX003 (ip), vehicle: saline 95 % of control

O=C(OCC1CCN2CCCC12)c1ccccc1 (stereo unspecified)
inactive: dose: 12.5 mg/kg/injection, schedule: Q01DX009 (ip), vehicle: saline 88 % of control | [1] 91 % of control | [2] 91 % of control

CC(C)(C)C1CCCCC1
inactive: dose: 12.5 mg/kg/injection, schedule: Q01DX009 (ip), vehicle: Klucel (hydroxypropylcellulose) (HPC) 90 % of control and 101 % of control | dose: 25.0 mg/kg/injection, schedule: Q01DX009 (ip), vehicle: Klucel (hydroxypropylcellulose) (HPC) 90 % of control and 98 % of control | dose: 50.0 mg/kg/injection, schedule: Q01DX009 (ip), vehicle: Klucel (hydroxypropylcellulose) (HPC) 93 % of control and 101 % of control | dose: 100.0 mg/kg/injection, schedule: Q01DX009 (ip), vehicle: Klucel (hydroxypropylcellulose) (HPC) 88 % of control and 98 % of control | dose: 200.0 mg/kg/injection, schedule: Q01DX009 (ip), vehicle: Klucel (hydroxypropylcellulose) (HPC) 91 % of control and 98 % of control | dose: 400.0 mg/kg/injection, schedule: Q01DX009 (ip), vehicle: Klucel (hydroxypropylcellulose) (HPC) 93 % of control

c1ccc2c(c1)-c1nc3ccccc3cc1CC21CCCC1
inactive: dose: 100.0 mg/kg/injection, schedule: Q01DX001 (ip), vehicle: saline with Tween-80 98 % of control | dose: 200.0 mg/kg/injection, schedule: Q01DX001 (ip), vehicle: saline with Tween-80 98 % of control | dose: 400.0 mg/kg/injection, schedule: Q01DX001 (ip), vehicle: saline with Tween-80 93 % of control

Cc1ccc(O)c(N)c1
inactive: [3] 93 % of control | [4] 111 % of control

CN1C(=O)C(=Cc2ccc(O)cc2)C(=O)N(C)C1=O
inactive: [5] 96 % of control and 100 % of control | [6] 102 % of control and 107 % of control | [7] 100 % of control and 108 % of control | [8] 104 % of control and 111 % of control | [9] 102 % of control and 106 % of control | [10] 106 % of control and 111 % of control

C1=C[N]2c3c4c(ccc3=C1)=CC=C[N]4[Ga]2[c]1ccccc1
inactive: [3] 118 % of control

COc1nc(-c2ccncc2)nc(N(C)C)n1
inactive: dose: 4.5 mg/kg/injection, schedule: Q04DX002 (ip), vehicle: saline 98 % of control | dose: 9.0 mg/kg/injection, schedule: Q04DX002 (ip), vehicle: saline 103 % of control

O=C1c2ccccc2C(=O)c2c(NCCN3CCNCC3)ccc(NCCN3CCNCC3)c21
inactive: dose: 4.0 mg/kg/injection, schedule: Q01DX009 (ip), vehicle: acid diluted with saline 100 % of control | dose: 8.0 mg/kg/injection, schedule: Q01DX009 (ip), vehicle: acid diluted with saline 102 % of control | dose: 16.0 mg/kg/injection, schedule: Q01DX009 (ip), vehicle: acid diluted with saline 106 % of control | dose: 32.0 mg/kg/injection, schedule: Q01DX009 (ip), vehicle: acid diluted with saline 104 % of control

COc1cccc(C(=O)c2ccncc2)c1OC
inactive: [11] 91 % of control | [12] 95 % of control | [13] 90 % of control

c1ccc(-c2nc(-c3nn[nH]n3)c3ccccc3n2)cc1
inactive: [14] 89 % of control | [15] 97 % of control

CN=NCCO
inactive: [1] 104 % of control | [2] 96 % of control | [14] 94 % of control | [16] 100 % of control | [15] 94 % of control

O=C1C=C(NNc2ccccc2)CCC1
inactive: [7] 104 % of control | [8] 100 % of control

Cc1cc(=O)cc(CC(=O)C(=O)O)o1
inactive: dose: 100.0 mg/kg/injection, schedule: Q01DX009 (ip), vehicle: saline sonified 101 % of control | [3] 97 % of control | [4] 95 % of control | [17] 97 % of control

O=C(O)c1ccccc1NCNc1ccccc1C(=O)O
inactive: [3] 100 % of control | [4] 93 % of control | [17] 110 % of control

CCCCS(=O)(=O)C1CCCC1=O (stereo unspecified)
inactive: [3] 102 % of control | [4] 102 % of control | [17] 102 % of control

COc1ccc(/C=N/N=C(/N)N[N+](=O)[O-])cc1
inactive: dose: 100.0 mg/kg/injection, schedule: Q01DX001 (ip), vehicle: Klucel (hydroxypropylcellulose) (HPC) 94 % of control | dose: 200.0 mg/kg/injection, schedule: Q01DX001 (ip), vehicle: Klucel (hydroxypropylcellulose) (HPC) 97 % of control | dose: 400.0 mg/kg/injection, schedule: Q01DX001 (ip), vehicle: Klucel (hydroxypropylcellulose) (HPC) 94 % of control

CC1(O)CC2CCC1C2 (stereo unspecified)
inactive: dose: 100.0 mg/kg/injection, schedule: Q04DX003 (ip), vehicle: saline 95 % of control | dose: 200.0 mg/kg/injection, schedule: Q04DX003 (ip), vehicle: saline 90 % of control | dose: 400.0 mg/kg/injection, schedule: Q04DX003 (ip), vehicle: saline 87 % of control

Cc1ccccc1NC(=O)/C=C\C(=O)O
inactive: dose: 20.0 mg/kg/injection, schedule: Q01DX009 (ip), vehicle: saline with Tween-80 105 % of control | dose: 20.0 mg/kg/injection, schedule: Q04DX003 (ip), vehicle: saline with Tween-80 102 % of control | dose: 40.0 mg/kg/injection, schedule: Q01DX009 (ip), vehicle: saline with Tween-80 104 % of control | dose: 40.0 mg/kg/injection, schedule: Q04DX003 (ip), vehicle: saline with Tween-80 97 % of control | dose: 80.0 mg/kg/injection, schedule: Q01DX009 (ip), vehicle: saline with Tween-80 102 % of control | dose: 80.0 mg/kg/injection, schedule: Q04DX003 (ip), vehicle: saline with Tween-80 97 % of control

Cc1c2ccccc2c(C)c2cnccc12
inactive: [8] 97 % of control | [9] 97 % of control | [10] 92 % of control

O=c1cc(O)cnn1C1OC(CO)C(O)C1O (stereo unspecified)
inactive: [11] 118 % of control and 110 % of control | dose: 50.0 mg/kg/injection, schedule: Q01DX009 (ip), vehicle: water 114 % of control and 117 % of control and 112 % of control | [12] 118 % of control (2×) and 108 % of control | [13] 117 % of control and 108 % of control | dose: 400.0 mg/kg/injection, schedule: Q01DX009 (ip), vehicle: water 119 % of control

O=C1CC2OCCC3CN4CCC56c7ccccc7N1C5C2C3CC46 (stereo unspecified)
inactive: [18] 106 % of control | [19] 101 % of control

C[CH2][Sn]([F])([CH2]C)[CH2]C
inactive: dose: 0.37 mg/kg/injection, schedule: Q01DX009 (ip), vehicle: saline with Tween-80 98 % of control | dose: 0.75 mg/kg/injection, schedule: Q01DX009 (ip), vehicle: saline with Tween-80 101 % of control | dose: 1.5 mg/kg/injection, schedule: Q01DX009 (ip), vehicle: saline with Tween-80 104 % of control | dose: 3.0 mg/kg/injection, schedule: Q01DX009 (ip), vehicle: saline with Tween-80 102 % of control | dose: 6.0 mg/kg/injection, schedule: Q01DX009 (ip), vehicle: saline with Tween-80 98 % of control

CN(/N=C/c1ccccc1)C(=S)Nc1ccccc1
inactive: dose: 31.25 mg/kg/injection, schedule: Q04DX003 (ip), vehicle: Klucel (hydroxypropylcellulose) (HPC) 101 % of control | dose: 62.5 mg/kg/injection, schedule: Q04DX003 (ip), vehicle: Klucel (hydroxypropylcellulose) (HPC) 103 % of control | dose: 125.0 mg/kg/injection, schedule: Q04DX003 (ip), vehicle: Klucel (hydroxypropylcellulose) (HPC) 100 % of control

N#CC1=C(N)CCC1
inactive: dose: 6.25 mg/kg/injection, schedule: Q01DX009 (ip), vehicle: saline with Tween-80 97 % of control | [5] 95 % of control | [6] 93 % of control | [3] 102 % of control | [17] 97 % of control

CSC(I)(N(C)C)N(C)C
inactive: [18] 98 % of control | [19] 101 % of control | dose: 300.0 mg/kg/injection, schedule: Q01DX001 (ip), vehicle: saline 98 % of control

CN1CCC(=C(C#N)C#N)CC1
inactive: [1] 103 % of control | [2] 94 % of control | [16] 96 % of control
